US11071730B2, “Substituted 6-azabenzimidazole compounds” (Gilead Sciences, Inc., priority 2018, dated 2021)
pIC50: −log10 of the molar value.

biological target: human HPK1 (MAP4K1) (Homo sapiens (Human), UniProt Q92918); assay: HPK1 IC50 Assay (TR-FRET biochemical kinase assay, STK S1 peptide substrate); conditions: recombinant human HPK1 kinase domain 0.15 nM, 10 μM ATP, 1 μM STK S1 peptide; geometric mean
Procedure: The enzymatic activity of human HPK1 (MAP4K1) was monitored in a biochemical assay in the presence or absence of compounds and using a synthetic peptide substrate. An increase in phosphorylation of the peptide by HPK1 was indicative of its kinase activity.
Recombinant HPK1 kinase domain produced via baculovirus infection of insect cells was obtained from Proteros (Proteros Biostructures #PR-0322) and was pre-activated in the presence of 2 mM ATP (Sigma-Aldrich, cat #GE27-2056-01) and 2 mM magnesium chloride for 16 hours at 4° C. The protein reaction mixture was then loaded to a desalting column (Thermo Fisher Scientific, Cat #89889) to remove excess ATP. HPK1 was eluted with buffer containing 20 mM Tris (2-Amino-2-(hydroxymethyl)propane-1,3-diol) pH 8.0, 150 mM NaCl, 2 mM dithiothreitol and 5% glycerol, and was frozen at −80° C. for later use.
Ten nanoliters of test compounds dissolved in DMSO at various concentrations were dispensed into a 384-well ProxiPlate (PerkinElmer #6008289). Five microliters of a solution of recombinant HPK1 diluted in HPK1 kinase assay buffer (50 mM BES [N,N-Bis(2-hydroxyethyl)-2-aminoethanesulfonic acid], pH 7.0; 10 mM magnesium chloride; 0.01% Triton X-100; 1 mM dithiothreitol; 0.01% bovine serum albumin; 0.1 mM sodium orthovanadate) was added to the compound-containing plate and was incubated for 15 minutes at 25° C. Five microliters of a mixture of ATP (Sigma-Aldrich #A6559) and peptide substrate STK S1 (Cisbio #61ST1BLC) diluted in HPK1 kinase assay buffer was then added to start the reaction. Final concentrations were 0.15 nM for HPK1, 10 μM for ATP, and 1 μM for the STK S1 peptide substrate. The reaction mixture was incubated at 25° C. for 3 hours and was stopped with the addition of 10 μl of an EDTA (Ethylenediaminetetraacetic acid)-containing detection buffer (Cisbio #62SDBRDF) supplemented with Europium cryptate-labeled anti-phospho-serine/threonine antibodies (Cisbio #62ST1PEJ) and XL665-labeled streptavidin (Cisbio #610SAXLG). The mixture was incubated for 16 hours at room temperature and peptide phosphorylation was measured by time-resolved fluorescence energy transfer (665 nm/620 nm) on an Envision plate reader (PerkinElmer).
Data in Table 1 were normalized based on positive (staurosporine) and negative (DMSO) controls. Least squares curve fittings were performed using a four-parameter variable slope nonlinear regression model. IC50 is defined as the concentration of compound required to inhibit 50% of maximum phosphorylation. IC50 values from multiple experiments were averaged by geometric mean and the standard deviation was calculated.

Chain of human HPK1 (MAP4K1) (Q92918 17-274): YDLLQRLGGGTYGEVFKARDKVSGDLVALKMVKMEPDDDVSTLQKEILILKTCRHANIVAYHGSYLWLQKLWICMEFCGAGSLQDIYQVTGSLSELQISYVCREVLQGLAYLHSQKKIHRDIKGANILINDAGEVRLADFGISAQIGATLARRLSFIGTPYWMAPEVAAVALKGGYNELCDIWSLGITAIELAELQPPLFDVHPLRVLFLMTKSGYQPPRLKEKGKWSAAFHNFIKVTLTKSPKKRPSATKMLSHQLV

SMILES | pIC50
COCC(C)(C)C(=O)N1CCC2(CC1)C(=O)N([C@H]1C[C@@H](N3CCCCC3)C1)c1cc(-c3cc4ncn(C(C)C)c4c(Nc4ccncc4F)n3)ccc12 [Example 140] | 9.52
CC(=O)N1CCC2(CC1)C(=O)N([C@H]1C[C@@H](N3CCCCCC3)C1)c1cc(-c3cc4ncn(C(C)C)c4c(Nc4ccncc4F)n3)ccc12 [Example 185] | 10.00
CC(C)n1cnc2cc(-c3ccc4c(c3)N([C@H]3C[C@@H](N5C[C@H]6CC[C@H]6C5)C3)C(=O)C43CCN(C(=O)[C@@H]4CCCO4)CC3)nc(Nc3ccncc3F)c21 [Example 111] | 10.10
CC(C)n1cnc2cc(-c3ccc4c(c3)N([C@H]3C[C@@H](N5CCCCC5)C3)C(=O)C43CCN(C(=O)C4(CO)CC4)CC3)nc(Nc3ccncc3F)c21 [Example 134] | 9.52
COC(C)(C)C(=O)N1CCC2(CC1)C(=O)N([C@H]1C[C@@H](N3CCCCC3)C1)c1cc(-c3cc4ncn(C(C)C)c4c(Nc4ccncc4F)n3)ccc12 [Example 145] | 9.40
CC(C)n1cnc2cc(-c3ccc4c(c3)N([C@H]3C[C@@H](N5CCC(C)(C)C5)C3)C(=O)C43CCN(C(=O)C4(C)COC4)CC3)nc(Nc3cc(Cl)ncc3F)c21 [Example 130] | 9.00
CC(=O)N1CCC2(CC1)C(=O)N([C@H]1C[C@@H](N3CCCC[C@@H]3C)C1)c1cc(-c3cc4ncn(C(C)C)c4c(Nc4ccncc4F)n3)ccc12 [Example 184] | 9.15
CC(=O)N1CCC2(CC1)C(=O)N([C@H]1C[C@@H](N3CCC4CC4C3)C1)c1cc(-c3cc4ncn(C(C)C)c4c(Nc4ccncc4F)n3)ccc12 (stereo partly shown) [Example 183] | 9.40
COC1(C(=O)N2CCC3(CC2)C(=O)N([C@H]2C[C@@H](N4CCCCC4)C2)c2cc(-c4cc5ncn(C(C)C)c5c(Nc5ccncc5F)n4)ccc23)CC1 [Example 146] | 9.52
COC(C)(C)CN(C)[C@H]1C[C@@H](N2C(=O)C3(CCN(C(C)=O)CC3)c3ccc(-c4cc5ncn(C(C)C)c5c(Nc5ccncc5F)n4)cc32)C1 [Example 179] | 8.35
CC(C)[C@H](O)C(=O)N1CCC2(CC1)C(=O)N([C@H]1C[C@@H](N3CCC(C)(C)C3)C1)c1cc(-c3cc4ncn(C(C)C)c4c(Nc4ccncc4F)n3)ccc12 [Example 119] | 9.70
CC(C)n1cnc2cc(-c3ccc4c(c3)N([C@H]3C[C@@H](N5CCCCC5)C3)C(=O)C43CCN(C(=O)C4CC4)CC3)nc(Nc3ccncc3F)c21 [Example 143] | 9.52
CC(C)n1cnc2cc(-c3ccc4c(c3)N([C@H]3C[C@@H](N5CCCCC5)C3)C(=O)C43CCN(C(=O)C(C)(C)C)CC3)nc(Nc3ccncc3F)c21 [Example 170] | 9.52
CC(C)n1cnc2cc(-c3ccc4c(c3)N([C@H]3C[C@@H](N5C[C@H]6CC[C@H]6C5)C3)C(=O)C43CCN(C(=O)C4(C)COC4)CC3)nc(Nc3ccncc3F)c21 [Example 110] | 9.70
CC(C)n1cnc2cc(-c3ccc4c(c3)N([C@H]3C[C@@H](N5CCC(C)(C)C5)C3)C(=O)C43CCN(C(=O)c4ncco4)CC3)nc(Nc3ccncc3F)c21 [Example 159] | 9.40
CC(=O)N1CCC2(CC1)C(=O)N([C@H]1C[C@@H](N3CC4CCC(C4)C3)C1)c1cc(-c3cc4ncn(C(C)C)c4c(Nc4cc(C)ncc4F)n3)ccc12 [Example 166] | 10.00
CC(C)n1cnc2cc(-c3ccc4c(c3)N([C@H]3C[C@@H](N5CCC(C)(C)C5)C3)C(=O)C43CCN(C(=O)c4cnco4)CC3)nc(Nc3ccncc3F)c21 [Example 158] | 9.40

same assay, conditions: recombinant human HPK1 kinase domain 0.15 nM, 10 μM ATP, 1 μM STK S1 peptide; geometric mean of multiple experiments

SMILES | pIC50
[2H]C1([2H])N([C@H]2C[C@@H](N3C(=O)C(C)(C)c4ccc(-c5cc6ncn(C(C)C)c6c(Nc6ccncc6F)n5)cc43)C2)C([2H])([2H])C([2H])([2H])C([2H])([2H])C1([2H])[2H] [Example 63] | 9.52
CC(C)n1cnc2cc(-c3ccc4c(c3)N([C@H]3C[C@@H](N5CC[C@@H](C)C5)C3)C(=O)C43CCN(C4COC4)CC3)nc(Nc3ccncc3F)c21 [Example 44] | 8.96
CC(C)n1cnc2cc(-c3ccc4c(c3)N([C@H]3C[C@@H](N5CC6CCC(C6)C5)C3)C(=O)C4(C)C)nc(Nc3ccncc3F)c21 [Example 62] | 10.30
CC(C)n1cnc2cc(-c3ccc4c(c3)N([C@H]3C[C@@H](N5CC(C)(C)C[C@@H]5CO)C3)C(=O)C43CCN(C4COC4)CC3)nc(Nc3ccncc3F)c21 [Example 39] | 9.22
CC(C)n1cnc2cc(-c3ccc4c(c3)N([C@H]3C[C@@H](N5CCC(C)(C)C5)C3)C(=O)C43CCN(C(=O)C4CCO4)CC3)nc(Nc3ccncc3F)c21 (mixture of isomers) [Example 78, 1-((1s,3s)-3-(3,3-dimethylpyrrolidin-1-yl)cyclobutyl)-6-(4-((3-fluoropyridin-4-yl)amino)-3-isopropyl-3H-imidazo[4,5-c]pyridin-6-yl)-1′-(oxetane-2-carbonyl)spiro[indoline-3,4′-piperidin]-2-one] | 9.15
CNC(=O)c1cc(Nc2nc(-c3ccc4c(c3)N([C@H]3C[C@@H](N5CCCCC5)C3)C(=O)C4(C)C)cc3ncn(C(C)C)c23)c(F)cn1 [Example 88] | 8.09
Cc1cc(Nc2nc(-c3ccc4c(c3)N([C@H]3C[C@@H](N5CCCCC5)C3)C(=O)C4(C)C)cc3ncn(C(C)C)c23)c(F)cn1 [Example 54] | 8.82
CC(C)n1cnc2cc(-c3ccc4c(c3)N([C@H]3C[C@@H](N5CCC(C)(C)C5)C3)C(=O)C43CCN(C(=O)CC4COC4)CC3)nc(Nc3ccncc3F)c21 [Example 21] | 9.40
CC(C)n1cnc2cc(-c3ccc4c(c3)N([C@H]3C[C@@H](N5CCC(F)CC5)C3)C(=O)C43CCN(C4COC4)CC3)nc(Nc3ccncc3F)c21 [Example 43] | 8.96
CC[C@H](C)n1cnc2cc(-c3ccc4c(c3)N([C@H]3C[C@@H](N5CCC(C)(C)C5)C3)C(=O)C43CCN(C4COC4)CC3)nc(Nc3ccncc3F)c21 [Example 90] | 9.52
CC(C)n1cnc2cc(-c3ccc4c(c3)N([C@H]3C[C@@H](N5CCC(C)(C)C5)C3)C(=O)C43CCN(C(=O)[C@H]4CCOC4)CC3)nc(Nc3ccncc3F)c21 [Example 16] | 9.52
CC(C)n1cnc2cc(-c3ccc4c(c3)N([C@H]3C[C@@H](N5CCCC(C)(C)C5)C3)C(=O)C4(C)C)nc(Nc3ccc(=O)[nH]c3)c21 [Example 82] | 10.00
CC(C)n1cnc2cc(-c3ccc4c(c3)N([C@H]3C[C@@H](N5CCCC(C)(C)C5)C3)C(=O)C4(C)C)nc(Nc3ccc(=O)n(C)c3)c21 [Example 81] | 9.70
CC(C)n1cnc2cc(-c3ccc4c(c3)N([C@H]3C[C@@H](N5CCCCC5)C3)C(=O)C43CCN(C(=O)C4(C)CCO4)CC3)nc(Nc3ccncc3F)c21 (stereo partly shown) [Example 11] | 9.70
CC(C)n1cnc2cc(-c3ccc4c(c3)N([C@H]3C[C@@H](NCC(C)(C)F)C3)C(=O)C4(C)C)nc(Nc3ccncc3F)c21 [Example 64] | 8.89
CC(C)n1cnc2cc(-c3ccc4c(c3)N([C@H]3C[C@@H](N5CCC(C)(C)C5)C3)C(=O)C43CCN(C(=O)[C@H]4CC[C@@H](C)O4)CC3)nc(Nc3ccncc3F)c21 [Example 20A, 1-((1s,3S)-3-(3,3-dimethylpyrrolidin-1-yl)cyclobutyl)-6-(4-((3-fluoropyridin-4-yl)amino)-3-isopropyl-3H-imidazo[4,5-c]pyridin-6-yl)-1′-((2R,5R)-5-methyltetrahydrofuran-2-carbonyl)spiro[indoline-3,4′-piperidin]-2-one] | 10.00
CC(=O)N1CCC2(CC1)C(=O)N([C@H]1C[C@@H](N3C[C@@H](C)[C@@H](C)C3)C1)c1cc(-c3cc4ncn(C(C)C)c4c(Nc4ccncc4F)n3)ccc12 [Example 33] | 9.52
